Source: patent EP1561465A2, “Methods of use of fluoroquinolone compounds against bacteria” (LG Life Sciences, Ltd., priority 1999, dated 2001)
≈ marks a conversion by molar mass, not a printed value. Like-named read-outs stand apart in the source and are kept apart here.

How the values were obtained:
Assay type in all cases: cell-based
Streptococcus pneumoniae = test: MIC by two-fold serial agar dilution, Sensitivity Disk agar-N (Kitasato isolates); conditions: for MIC90 / MIC / MIC50: Streptococcus pneumoniae; for MIC90: read-out: MIC90; for MIC: read-out: MIC Range; for MIC50: read-out: MIC50
Streptococcus pyogenes = test: MIC by agar dilution (NCCLS), 411 isolates Buenos Aires 1998-99; conditions: Streptococcus pyogenes (n = 69)
Shigella spp. = test: MIC by agar dilution (NCCLS M7-A4), 288 enteropathogenic isolates, eight quinolones; conditions: Shigella spp. (n = 21)
Salmonella spp. = test: as above; conditions: for MIC: ciprofloxacin MIC ≥[…], read-out: MIC
Haemophilus influenzae = test: MIC by two-fold serial agar dilution, Sensitivity Disk agar-N (Kitasato isolates); conditions: Haemophilus influenzae (24)
Hafnia alvei = test: MIC by agar dilution (NCCLS M7-A4), 288 enteropathogenic isolates, eight quinolones; conditions: Hafnia alvei (n = 32)
Campylobacter jejuni = test: MIC by agar dilution (NCCLS M7-A4), 5% sheep blood, microaerophilic 48 h; conditions: Campylobacter jejuni (n=91)
Staphylococcus aureus = test: MIC by NCCLS broth microdilution, 1100 Japanese clinical isolates 1997-1998; conditions: for MIC50 / MIC90 / MIC: Staphylococcus aureus; for MIC: Staphylococcus aureus quinolone resistant
[1] = tested on: Gram positive anaerobic and facultative anaerobic pathogens; test: microbe, parasite or virus in culture
[2] = Staphylococcus aureus oxacillin resistant (n=57)
[3] = Staphylococcus aureus oxacillin susceptible (n=41)

Question: How did the “more potent than sparfloxacin” value (Streptococcus pneumoniae; S. pneumoniae, by MIC90) turn out when `CO/N=C1\CN(c2nc3c(cc2F)c(=O)c(C(=O)O)cn3C2CC2)CC1CN` (racemic) [Gemifloxacin, (R,S)-7-(3-aminomethyl-4-methoxyiminopyrrolidin-1-yl)-1-cyclopropyl-6-fluoro-4-oxo-1,4-dihydro-1,8-naphthyridine-3-carboxylic acid] was run?
Answer: 8 fold

Question: What about the “more potent than trovafloxacin” value (Streptococcus pneumoniae; S. pneumoniae, by MIC90) of the same compound?
Answer: 4 fold

Question: What about the MIC90 (Streptococcus pneumoniae; 18 h, Ciprofloxacin-resistant (21), ciprofloxacin MIC ≥8 µg/ml) of the same compound?
Answer: 0.5 µg/mL (≈ 1.28 µM)

Question: What about the MIC (Streptococcus pneumoniae; 18 h, Ciprofloxacin-resistant (21)) of the same compound?
Answer: 0.063 to 0.5 µg/mL (≈ 0.162 to 1.28 µM)

Question: What about the MIC (Streptococcus pneumoniae; 18 h, Ciprofloxacin-susceptible (94)) of the same compound?
Answer: 0.008 to 0.063 µg/mL (≈ 0.0205 to 0.162 µM)

Question: And the MIC (Streptococcus pneumoniae; 18 h, Erythromycin-resistant (37))?
Answer: 0.016 to 0.5 µg/mL (≈ 0.0411 to 1.28 µM)

Question: And the MIC (Streptococcus pneumoniae; 18 h, Minocycline-resistant (37))?
Answer: 0.016 to 0.5 µg/mL (≈ 0.0411 to 1.28 µM)

Question: And the MIC (Streptococcus pneumoniae; 18 h, Penicillin-resistant (19))?
Answer: 0.016 to 0.063 µg/mL (≈ 0.0411 to 0.162 µM)

Question: What about the MIC50 (Streptococcus pneumoniae; Ciprofloxacin-resistant (21)) of the same compound?
Answer: 0.25 µg/mL (≈ 0.642 µM)

Question: What about the MIC50 (Streptococcus pneumoniae; Ciprofloxacin-susceptible (94)) of the same compound?
Answer: 0.031 µg/mL (≈ 0.0796 µM)

Question: What about the MIC90 (Streptococcus pneumoniae; Ciprofloxacin-susceptible (94)) of the same compound?
Answer: 0.031 µg/mL (≈ 0.0796 µM)

Question: What about the MIC50 (Streptococcus pneumoniae; Erythromycin-resistant (37)) of the same compound?
Answer: 0.031 µg/mL (≈ 0.0796 µM)

Question: And the MIC90 (Streptococcus pneumoniae; Erythromycin-resistant (37))?
Answer: 0.063 µg/mL (≈ 0.162 µM)

Question: What about the MIC50 (Streptococcus pneumoniae; Minocycline-resistant (37)) of the same compound?
Answer: 0.031 µg/mL (≈ 0.0796 µM)

Question: What about the MIC90 (Streptococcus pneumoniae; Minocycline-resistant (37)) of the same compound?
Answer: 0.063 µg/mL (≈ 0.162 µM)

Question: And the MIC50 (Streptococcus pneumoniae; Penicillin-resistant (19))?
Answer: 0.016 µg/mL (≈ 0.0411 µM)

Question: And the MIC90 (Streptococcus pneumoniae; Penicillin-resistant (19))?
Answer: 0.063 µg/mL (≈ 0.162 µM)

Question: And the “MIC Range” value (Streptococcus pyogenes)?
Answer: ≤0.004 to 0.125 µg/mL

Question: And the MIC90 (Streptococcus pyogenes; read-out: MIC90)?
Answer: 0.03 µg/mL (≈ 0.077 µM)

Question: What about the “% Susceptible” value (Shigella spp.) of the same compound?
Answer: 100%

Question: And the MIC50 (Shigella spp.)?
Answer: ≤ 0.015 µg/mL

Question: What about the MIC90 (Shigella spp.) of the same compound?
Answer: ≤ 0.015 µg/mL

Question: And the “MIC Range” value (Shigella spp.)?
Answer: ≤0.015 µg/mL

Question: And the MIC (Salmonella spp.; S. hadar (n = 2))?
Answer: 0.25 µg/mL (≈ 0.642 µM)

Question: What about the MIC (Salmonella spp.; S. newport (n = 1)) of the same compound?
Answer: 0.25 µg/mL (≈ 0.642 µM)

Question: And the MIC (Salmonella spp.; S. virchow (n = 2))?
Answer: 0.12 µg/mL (≈ 0.308 µM)

Question: And the “% Susceptible” value (Salmonella spp.; Salmonella spp. (n = 106))?
Answer: 100%

Question: What about the MIC50 (Salmonella spp.; Salmonella spp. (n = 106)) of the same compound?
Answer: 0.03 µg/mL (≈ 0.077 µM)

Question: And the MIC90 (Salmonella spp.; Salmonella spp. (n = 106))?
Answer: 0.12 µg/mL (≈ 0.308 µM)

Question: And the “MIC Range” value (Salmonella spp.; Salmonella spp. (n = 106))?
Answer: ≤0.015 to 0.25 µg/mL

Question: And the MIC (Salmonella spp.; Salmonella, S. tshiongwe (n = 1))?
Answer: 0.25 µg/mL (≈ 0.642 µM)

Question: What about the “MICs lower than those of the other fluoroquinolones studied” value (Salmonella spp.; six Salmonella spp. with ciprofloxacin MICs ≥[…]) of the same compound?
Answer: 1-4 dilutions

Question: What about the MIC50 (Haemophilus influenzae) of the same compound?
Answer: 0.016 µg/mL (≈ 0.0411 µM)

Question: What about the MIC90 (Haemophilus influenzae) of the same compound?
Answer: 0.016 µg/mL (≈ 0.0411 µM)

Question: What about the “MIC Range” value (Haemophilus influenzae) of the same compound?
Answer: 0.008 to 0.031 µg/mL

Question: What about the “% Susceptible” value (Hafnia alvei) of the same compound?
Answer: 100%

Question: What about the MIC50 (Hafnia alvei) of the same compound?
Answer: 0.03 µg/mL (≈ 0.077 µM)

Question: And the MIC90 (Hafnia alvei)?
Answer: 0.03 µg/mL (≈ 0.077 µM)

Question: And the “MIC Range” value (Hafnia alvei)?
Answer: ≤0.015 to 0.06 µg/mL

Question: And the “% Susceptible” value (Campylobacter jejuni)?
Answer: 31.86%

Question: What about the MIC50 (Campylobacter jejuni) of the same compound?
Answer: 32 µg/mL (≈ 82.2 µM)

Question: What about the MIC90 (Campylobacter jejuni) of the same compound?
Answer: 128 µg/mL (≈ 329 µM)

Question: And the “MIC Range” value (Campylobacter jejuni)?
Answer: 0.03 to 128 µg/mL

Question: What about the “MIC Range” value (Staphylococcus aureus; [2]) of the same compound?
Answer: ≤0.008 to 64 µg/mL

Question: And the “MIC Range” value (Staphylococcus aureus; [3])?
Answer: ≤0.008 to 1 µg/mL

Question: And the MIC50 (Staphylococcus aureus; [2])?
Answer: 1 µg/mL (≈ 2.57 µM)

Question: And the MIC90 (Staphylococcus aureus; [2])?
Answer: 32 µg/mL (≈ 82.2 µM)

Question: What about the MIC50 (Staphylococcus aureus; [3]) of the same compound?
Answer: 0.063 µg/mL (≈ 0.162 µM)

Question: And the MIC90 (Staphylococcus aureus; [3])?
Answer: 0.063 µg/mL (≈ 0.162 µM)

Question: And the MIC (Staphylococcus aureus; strain TMS1* (spontaneous mutant resistant to ciprofloxacin))?
Answer: 0.032 µg/mL (≈ 0.0822 µM)

Question: What about the MIC (Staphylococcus aureus; strain TMS2* (spontaneous mutant resistant to ciprofloxacin)) of the same compound?
Answer: 1 µg/mL (≈ 2.57 µM)

Question: What about the MIC (Staphylococcus aureus; strain TMS3, read-out: MIC) of the same compound?
Answer: 32 µg/mL (≈ 82.2 µM)

Question: What about the MIC (Staphylococcus aureus; strain TMS4, read-out: MIC) of the same compound?
Answer: 4 µg/mL (≈ 10.3 µM)

Question: And the MIC (Staphylococcus aureus; strain TMS5, read-out: MIC)?
Answer: 2 µg/mL (≈ 5.14 µM)

Question: And the MIC (Staphylococcus aureus; strain TMS6, read-out: MIC)?
Answer: 0.25 µg/mL (≈ 0.642 µM)

Question: What about the MIC ([1]; Bifidobacterium adolescentis, ATCC15703) of the same compound?
Answer: 0.25 µg/mL (≈ 0.642 µM)

Question: And the MIC ([1]; Bifidobacterium bifidum, JCM1255)?
Answer: 2 µg/mL (≈ 5.14 µM)

Question: And the MIC ([1]; Bifidobacterium breve, ATCC15700)?
Answer: 1 µg/mL (≈ 2.57 µM)

Question: And the MIC ([1]; Bifidobacterium longum, ATCC15707)?
Answer: 1 µg/mL (≈ 2.57 µM)

Question: And the MIC ([1]; Bifidobacterium pseudolongum, ATCC25526)?
Answer: 1 µg/mL (≈ 2.57 µM)

Question: And the MIC ([1]; Clostridioides difficile)?
Answer: 2 µg/mL (≈ 5.14 µM)

Question: And the MIC ([1]; Clostridium perfringens, ATCC13124)?
Answer: 0.06 µg/mL (≈ 0.154 µM)

Question: What about the MIC ([1]; Clostridium septicum, ATCC12464) of the same compound?
Answer: 0.06 µg/mL (≈ 0.154 µM)

Question: What about the MIC ([1]; Cutibacterium acnes, ATCC11828) of the same compound?
Answer: 0.25 µg/mL (≈ 0.642 µM)

Question: What about the MIC ([1]; Eggerthella lenta, ATCC25559) of the same compound?
Answer: 0.25 µg/mL (≈ 0.642 µM)

Question: What about the MIC ([1]; Finegoldia magna, ATCC29328) of the same compound?
Answer: ≤ 0.03 µg/mL
